In patent EP2951180B1, “2,6,7,8 SUBSTITUTED PURINES AS HDM2 INHIBITORS” (Merck Sharp & Dohme Corp., priority 2013, dated 2014):
pIC50: −log10 of the molar value.

biological target: T1, HDM2 (Homo sapiens, UniProt Q00987); assay: HDM2 FRET assay (inhibition of binding of FITC labeled p53-pocket peptide to HDM2); conditions: Table 9; read-out: FRET IC50
T1 construct: Thioredoxin (N); made in house; host or cells: E. coli strain BL21(DE3)Rosetta
How it was run: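 Final: 0.5 nM His-HDM2, 3 nM FITC peptide, 0.25 nM Tb anti-His Ab; PBS, 0.01% BSA, 0.01% Tween-20; 0.1% DMSO.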

T1 sequence (Q00987 17-125): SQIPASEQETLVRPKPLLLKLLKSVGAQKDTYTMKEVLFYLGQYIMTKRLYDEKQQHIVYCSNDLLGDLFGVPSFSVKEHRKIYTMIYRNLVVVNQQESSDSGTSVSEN

`C[C@@H](Nc1nc(-c2noc(=O)[nH]2)nc2nc(N3CCCCC3c3nccn3C)n(Cc3ccc(C(F)(F)F)cc3)c12)C1CCC1` (stereo partly drawn) [Example 9.106, 3-(6-{[(1R)-1-cyclobutylethyl]amino}-8-[2-(1-methyl-1H-imidazol-2-yl)piperidin-1-yl]-7-[4-(trifluoromethyl)benzyl]-7H-purin-2-yl)-1,2,4-oxadiazol-5(4H)-one] and `CC1CCCCN1c1nc2nc(-c3noc(=O)[nH]3)nc(N[C@H](C)C3CCC3)c2n1Cc1ccc(C(F)(F)F)cc1` (stereo partly drawn) [Example 9.110, 3-(6-{[(1R)-1-cyclobutylethyl]amino}-8-(2-methylpiperidin-1-yl)-7-[4-(trifluoromethyl)benzyl]-7H-purin-2-yl)-1,2,4-oxadiazol-5(4H)-one] are within 0.2 log units of each other in pIC50: 7.94 for the first, 7.99 for the second.

First: Cc1noc(C2CCCCN2c2nc3nc(-c4noc(=O)[nH]4)nc(N[C@H](C)C4CCC4)c3n2Cc2ccc(C(F)(F)F)cc2)n1 (stereo partly drawn) [Example 9.107, 3-(6-{[(1R)-1-cyclobutylethyl]amino}-8-[2-(3-methyl-1,2,4-oxadiazol-5-yl)piperidin-1-yl]-7-[4-(trifluoromethyl)benzyl]-7H-purin-2-yl)-1,2,4-oxadiazol-5(4H)-one]
Second: COCC1CCCCN1c1nc2nc(-c3noc(=O)[nH]3)nc(N[C@H](C)C3CCC3)c2n1Cc1ccc(C(F)(F)F)cc1 (stereo partly drawn) [Example 9.111, 3-(6-{[(1R)-1-cyclobutylethyl]amino}-8-[2-(methoxymethyl)piperidin-1-yl]-7-[4-(trifluoromethyl)benzyl]-7H-purin-2-yl)-1,2,4-oxadiazol-5(4H)-one]
The pIC50 of the first is 0.23 log units higher: 8.29 for the first, 8.06 for the second. The first is the more potent here.

Compared with `CC(C)CN1CCC(CN(C)c2nc3nc(-c4noc(=O)[nH]4)nc(N[C@H](C)C4CCC4)c3n2Cc2ccc(C(F)(F)F)cc2)C1` (stereo partly drawn) [Example 9.108, 3-(6-{[(1R)-1-cyclobutylethyl]amino}-8-(methyl{[1-(2-methylpropyl)pyrrolidin-3-yl]methyl}amino)-7-[4-(trifluoromethyl)benzyl]-7H-purin-2-yl)-1,2,4-oxadiazol-5(4H)-one], `C[C@@H]1COCCN1c1nc2nc(-c3noc(=O)[nH]3)nc(N[C@H](C)C3CCC3)c2n1Cc1ccc(C(F)(F)F)cc1` [Example 9.125, 3-(6-{[(1R)-1-cyclobutylethyl]amino}-8-[(3R)-3-methylmorpholin-4-yl]-7-[4-(trifluoromethyl)benzyl]-7H-purin-2-yl)-1,2,4-oxadiazol-5(4H)-one] is 1.33 log units higher in pIC50: 6.84 for the first, 8.17 for the second. The second is the more potent here.

Compared with `C[C@@H](Nc1nc(-c2noc(=O)[nH]2)nc2nc(N3CCCCC3Cc3ccccc3)n(Cc3ccc(C(F)(F)F)cc3)c12)C1CCC1` (stereo partly drawn) [Example 9.109, 3-{8-(2-benzylpiperidin-1-yl)-6-{[(1R)-1-cyclobutylethyl]amino}-7-[4-(trifluoromethyl)benzyl]-7H-purin-2-yl}-1,2,4-oxadiazol-5(4H)-one], `C[C@@H](Nc1nc(-c2noc(=O)[nH]2)nc2nc(N3CCCCC3c3cccc(F)c3)n(Cc3ccc(C(F)(F)F)cc3)c12)C1CCC1` (stereo partly drawn) [Example 9.113, 3-(6-{[(1R)-1-cyclobutylethyl]amino}-8-[2-(3-fluorophenyl)piperidin-1-yl]-7-[4-(trifluoromethyl)benzyl]-7H-purin-2-yl)-1,2,4-oxadiazol-5(4H)-one] is 0.37 log units higher in pIC50: 7.22 for the first, 7.59 for the second.

`C[C@@H](Nc1nc(-c2noc(=O)[nH]2)nc2nc(N3CCCCC3c3ccc(F)cc3)n(Cc3ccc(C(F)(F)F)cc3)c12)C1CCC1` (stereo partly drawn) [Example 9.112, 3-(6-{[(1R)-1-cyclobutylethyl]amino}-8-[2-(4-fluorophenyl)piperidin-1-yl]-7-[4-(trifluoromethyl)benzyl]-7H-purin-2-yl)-1,2,4-oxadiazol-5(4H)-one] and `C[C@@H](Nc1nc(C(=O)O)nc2nc(N3CCCCC3c3ccc(F)cc3)n(Cc3ccc(C(F)(F)F)cc3)c12)C1CCC1` (stereo partly drawn) [Example 9.117, 6-{[(1R)-1-cyclobutylethyl]amino}-8-[2-(4-fluorophenyl)piperidin-1-yl]-7-[4-(trifluoromethyl)benzyl]-7H-purine-2-carboxylic acid] are within 0.2 log units of each other in pIC50: 8.02 for the first, 7.98 for the second.

First: C[C@@H](Nc1nc(C(=O)O)nc2nc(N3CCCCC3c3cccnc3)n(Cc3ccc(C(F)(F)F)cc3)c12)C1CCC1 (stereo partly drawn) [Example 9.114, 6-{[(1R)-1-cyclobutylethyl]amino}-8-(2-pyridin-3-ylpiperidin-1-yl)-7-[4-(trifluoromethyl)benzyl]-7H-purine-2-carboxylic acid]
Second: C[C@@H](Nc1nc(C(=O)O)nc2nc(N3CCCCC3c3ccncc3)n(Cc3ccc(C(F)(F)F)cc3)c12)C1CCC1 (stereo partly drawn) [Example 9.115, 6-{[(1R)-1-cyclobutylethyl]amino}-8-(2-pyridin-4-ylpiperidin-1-yl)-7-[4-(trifluoromethyl)benzyl]-7H-purine-2-carboxylic acid]
The pIC50 of the first is 0.82 log units lower: 6.96 for the first, 7.78 for the second.

`C[C@@H](Nc1nc(C(=O)O)nc2nc(N3CCCCC3c3cccc(F)c3)n(Cc3ccc(C(F)(F)F)cc3)c12)C1CCC1` (stereo partly drawn) [Example 9.116, 6-{[(1R)-1-cyclobutylethyl]amino}-8-[2-(3-fluorophenyl)piperidin-1-yl]-7-[4-(trifluoromethyl)benzyl]-7H-purine-2-carboxylic acid] and `CC(C)C1CCCCN1c1nc2nc(C(=O)O)nc(N[C@H](C)C3CCC3)c2n1Cc1ccc(C(F)(F)F)cc1` (stereo partly drawn) [Example 9.119, 6-{[(1R)-1-cyclobutylethyl]amino}-8-[2-(1-methylethyl)piperidin-1-yl]-7-[4-(trifluoromethyl)benzyl]-7H-purine-2-carboxylic acid] are within 0.2 log units of each other in pIC50: 7.85 for the first, 8.04 for the second.

Going from `C[C@@H](Nc1nc(C(=O)O)nc2nc(N3CCOCC3)n(Cc3ccc(C(F)(F)F)cc3)c12)C1CCC1` [Example 9.118, 6-{[(1R)-1-cyclobutylethyl]amino}-8-morpholin-4-yl-7-[4-(trifluoromethyl)benzyl]-7H-purine-2-carboxylic acid] to `C[C@@H](Nc1nc(C(=O)O)nc2nc(N3CCc4ccccc4C3)n(Cc3ccc(C(F)(F)F)cc3)c12)C1CCC1` [Example 9.121, 6-{[(1R)-1-cyclobutylethyl]amino}-8-(3,4-dihydroisoquinolin-2(1H)-yl)-7-[4-(trifluoromethyl)benzyl]-7H-purine-2-carboxylic acid], the pIC50 rises from 7.29 to 7.98 (0.69 log units).

`CC(C)CC1CCCCN1c1nc2nc(C(=O)O)nc(N[C@H](C)C3CCC3)c2n1Cc1ccc(C(F)(F)F)cc1` (stereo partly drawn) [Example 9.120, 6-{[(1R)-1-cyclobutylethyl]amino}-8-[2-(2-methylpropyl)piperidin-1-yl]-7-[4-(trifluoromethyl)benzyl]-7H-purine-2-carboxylic acid] and `C[C@@H](Nc1nc(C(=O)O)nc2nc(N3CCCCC3C3CCCCC3)n(Cc3ccc(C(F)(F)F)cc3)c12)C1CCC1` (stereo partly drawn) [Example 9.122, 6-{[(1R)-1-cyclobutylethyl]amino}-8-(2-cyclohexylpiperidin-1-yl)-7-[4-(trifluoromethyl)benzyl]-7H-purine-2-carboxylic acid] are within 0.2 log units of each other in pIC50: 8.27 for the first, 8.34 for the second.

First: C[C@@H](Nc1nc(C(=O)O)nc2nc(NC(C)(C)c3ccccc3)n(Cc3ccc(C(F)(F)F)cc3)c12)C1CCC1 [Example 9.123, 6-{[(1R)-1-cyclobutylethyl]amino}-8-[(1-methyl-1-phenylethyl)amino]-7-[4-(trifluoromethyl)benzyl]-7H-purine-2-carboxylic acid]
Second: C[C@@H](Nc1nc(C(=O)O)nc2nc(N3CCCc4ccccc43)n(Cc3ccc(C(F)(F)F)cc3)c12)C1CCC1 [Example 9.124, 6-{[(1R)-1-cyclobutylethyl]amino}-8-(3,4-dihydroquinolin-1(2H)-yl)-7-[4-(trifluoromethyl)benzyl]-7H-purine-2-carboxylic acid]
The pIC50 of the first is 0.75 log units higher: 8.73 for the first, 7.98 for the second.

same assay, conditions: Table 10; read-out: FRET IC50

Going from `C[C@@H](Nc1nc(C(=O)O)nc2nc(COc3ccccc3)n(Cc3ccc(C(F)(F)F)cc3)c12)C1CCC1` [Example 10.1, (R)-6-((1-cyclobutylethyl)amino)-8-(phenoxymethyl)-7-(4-(trifluoromethyl)benzyl)-7H-purine-2-carboxylic acid] to `C[C@@H](Nc1nc(C(=O)O)nc2nc(COCc3ccccc3)n(Cc3ccc(C(F)(F)F)cc3)c12)C1CCC1` [Example 10.2, (R)-8-((benzyloxy)methyl)-6-((1-cyclobutylethyl)amino)-7-(4-(trifluoromethyl)benzyl)-7H-purine-2-carboxylic acid], the pIC50 rises from 7.43 to 7.67 (0.24 log units). The second is the more potent here.

First: CC(C)CC(=O)N(C)c1nc2nc(C(=O)O)nc(N[C@H](C)C3CCC3)c2n1Cc1ccc(C(F)(F)F)cc1 [Example 10.3, (R)-6-((1-cyclobutylethyl)amino)-8-(N,3-dimethylbutanamido)-7-(4-(trifluoromethyl)benzyl)-7H-purine-2-carboxylic acid]
Second: CC(C)COC(C)c1nc2nc(C(=O)O)nc(N[C@H](C)C3CCC3)c2n1Cc1ccc(C(F)(F)F)cc1 (stereo partly drawn) [Example 10.5, 6-(((R)-1-cyclobutylethyl)amino)-8-(1-isobutoxyethyl)-7-(4-(trifluoromethyl)benzyl)-7H-purine-2-carboxylic acid]
The pIC50 of the first is 0.24 log units lower: 7.16 for the first, 7.40 for the second.

Compared with `C[C@@H](Nc1nc(C(=O)O)nc2nc(N(C)C(=O)C3CCCCC3)n(Cc3ccc(C(F)(F)F)cc3)c12)C1CCC1` [Example 10.4, (R)-6-((1-cyclobutylethyl)amino)-8-(N-methylcyclohexanecarboxamido)-7-(4-(trifluoromethyl)benzyl)-7H-purine-2-carboxylic acid], `CC(O)c1nc2nc(C(=O)O)nc(N[C@H](C)C3CCC3)c2n1Cc1ccc(C(F)(F)F)cc1` (stereo partly drawn) [Example 10.7, 6-(((R)-1-Cyclobutylethyl)amino)-8-(1-hydroxyethyl)-7-(4-(trifluoromethyl)benzyl)-7H-purine-2-carboxylic acid] is 0.99 log units lower in pIC50: 7.85 for the first, 6.86 for the second. The first is the more potent here.

For `CC(Oc1ccccc1)c1nc2nc(C(=O)O)nc(N[C@H](C)C3CCC3)c2n1Cc1ccc(C(F)(F)F)cc1` (stereo partly drawn) [Example 10.8, 6-(((R)-1-Cyclobutylethyl)amino)-8-(1-phenoxyethyl)-7-(4-(trifluoromethyl)benzyl)-7H-purine-2-carboxylic acid], the pIC50 was 7.54.
